Results on 20 compounds are retold here after US11786534B2 (TAIHO PHARMACEUTICAL CO., LTD., priority 2019, dated 2023).

pIC50: −log10 of the molar value. Bounds are passed on as bounds.

Common to all, as to assay type: biochemical
The target of experiment [1] is T1, human EGFR (L858R/T790M/C797S) (Homo sapiens, UniProt P00533, C797S/L858R/T790M).
T1 construct: made in house; host or cells: Sf9 insect cells, baculovirus
Briefly: Inhibitory activity against EGFR (L858R/T790M/C797S) kinase. In a few lines:
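GST-tagged cytoplasmic domain of human EGFR L858R/T790M/C797S, expressed in Sf9 insect cells via baculovirus and glutathione-purified. Kinase reaction run at 0.5 μM ATP final; IC50 (nM) determined per compound.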

Experiment [2] concerns the target T2, human EGFR (d746-750/C797S) (Homo sapiens, UniProt P00533, C797S/DEL746-750).
T2 construct: purchased SignalChem
Briefly: Inhibitory activity against EGFR (d746-750/C797S) kinase. An outline of the steps:
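Recombinant human EGFR d746-750/C797S in 13.5 mM Tris pH 7.5 with 2 mM DTT and 0.009% Tween-20. Reaction ran 60 min with 14 μM ATP, 20 mM MgCl2 and 12.5 mM MnCl2, stopped by 40 mM EDTA. IC50 in nM.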

Experiment [3] addresses T3, human EGFR (L858R/C797S) (Homo sapiens, UniProt P00533, C797S/L858R).
T3 construct: purchased SignalChem
Nature of the experiment: Inhibitory activity against EGFR (L858R/C797S) kinase. As to conditions: Test Example 1, Table 5; ATP 4 μM, 90 minutes. In a few lines:
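Purified recombinant human EGFR (C797S/L858R) kinase, final ATP 4 μM, 90-minute kinase reaction, otherwise per the EGFR (d746-750/C797S) protocol. IC50 (nM) determined from inhibition data.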

The target in experiment [4] is T4, human EGFR (WT) (Homo sapiens, UniProt P00533).
T4 construct: purchased Carna Biosciences Inc., Japan
Briefly: Inhibitory activity against EGFR (WT) kinase. In a few lines:
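Purified recombinant human wild-type EGFR kinase, with ATP at 1.5 μM final. Compound inhibition of kinase activity read out and fitted to give IC50 (nM).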

Setting [5] is: Test Example 1, Table 3, ATP 0.5 μM.
The mark [6] stands for this setting: Test Example 1, Table 4, ATP 14 μM, 60 minutes.
[7] abbreviates: Test Example 1, Table 6, ATP 1.5 μM.

The term pIC50 denotes the IC50 on a negative log10 scale, so that one unit is a factor of ten.

T4 sequence (P00533 25-1210): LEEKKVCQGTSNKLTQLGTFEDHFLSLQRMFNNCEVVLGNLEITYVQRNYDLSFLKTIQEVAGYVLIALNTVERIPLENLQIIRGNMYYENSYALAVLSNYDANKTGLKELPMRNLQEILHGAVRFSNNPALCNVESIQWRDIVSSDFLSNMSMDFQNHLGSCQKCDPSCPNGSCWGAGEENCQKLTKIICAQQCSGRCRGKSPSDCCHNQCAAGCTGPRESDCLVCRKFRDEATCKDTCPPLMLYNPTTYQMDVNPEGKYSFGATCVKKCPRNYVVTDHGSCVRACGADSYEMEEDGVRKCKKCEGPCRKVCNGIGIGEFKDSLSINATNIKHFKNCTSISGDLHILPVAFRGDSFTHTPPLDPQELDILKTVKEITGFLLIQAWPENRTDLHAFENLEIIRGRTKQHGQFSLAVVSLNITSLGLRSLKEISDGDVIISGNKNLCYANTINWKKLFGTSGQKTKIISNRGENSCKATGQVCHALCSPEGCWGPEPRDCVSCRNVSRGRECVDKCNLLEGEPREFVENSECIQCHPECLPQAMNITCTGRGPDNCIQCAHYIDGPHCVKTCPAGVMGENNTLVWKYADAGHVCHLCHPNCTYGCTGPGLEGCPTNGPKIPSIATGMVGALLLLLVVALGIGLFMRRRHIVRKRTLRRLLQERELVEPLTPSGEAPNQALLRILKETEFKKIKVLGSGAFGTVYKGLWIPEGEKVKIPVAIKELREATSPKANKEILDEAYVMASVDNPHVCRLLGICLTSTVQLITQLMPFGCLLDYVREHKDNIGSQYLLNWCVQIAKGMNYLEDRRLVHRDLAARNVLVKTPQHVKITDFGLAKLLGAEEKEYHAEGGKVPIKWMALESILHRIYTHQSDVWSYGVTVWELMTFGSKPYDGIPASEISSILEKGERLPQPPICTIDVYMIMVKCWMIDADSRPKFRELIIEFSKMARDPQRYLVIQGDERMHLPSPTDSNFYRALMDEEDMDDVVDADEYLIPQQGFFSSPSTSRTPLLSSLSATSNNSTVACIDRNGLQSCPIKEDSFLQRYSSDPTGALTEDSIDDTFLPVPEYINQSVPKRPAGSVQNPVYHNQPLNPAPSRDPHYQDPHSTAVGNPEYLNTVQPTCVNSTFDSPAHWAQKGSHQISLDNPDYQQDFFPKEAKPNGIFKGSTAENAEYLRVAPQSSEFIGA
T3 sequence (P00533 25-1210 C797S/L858R): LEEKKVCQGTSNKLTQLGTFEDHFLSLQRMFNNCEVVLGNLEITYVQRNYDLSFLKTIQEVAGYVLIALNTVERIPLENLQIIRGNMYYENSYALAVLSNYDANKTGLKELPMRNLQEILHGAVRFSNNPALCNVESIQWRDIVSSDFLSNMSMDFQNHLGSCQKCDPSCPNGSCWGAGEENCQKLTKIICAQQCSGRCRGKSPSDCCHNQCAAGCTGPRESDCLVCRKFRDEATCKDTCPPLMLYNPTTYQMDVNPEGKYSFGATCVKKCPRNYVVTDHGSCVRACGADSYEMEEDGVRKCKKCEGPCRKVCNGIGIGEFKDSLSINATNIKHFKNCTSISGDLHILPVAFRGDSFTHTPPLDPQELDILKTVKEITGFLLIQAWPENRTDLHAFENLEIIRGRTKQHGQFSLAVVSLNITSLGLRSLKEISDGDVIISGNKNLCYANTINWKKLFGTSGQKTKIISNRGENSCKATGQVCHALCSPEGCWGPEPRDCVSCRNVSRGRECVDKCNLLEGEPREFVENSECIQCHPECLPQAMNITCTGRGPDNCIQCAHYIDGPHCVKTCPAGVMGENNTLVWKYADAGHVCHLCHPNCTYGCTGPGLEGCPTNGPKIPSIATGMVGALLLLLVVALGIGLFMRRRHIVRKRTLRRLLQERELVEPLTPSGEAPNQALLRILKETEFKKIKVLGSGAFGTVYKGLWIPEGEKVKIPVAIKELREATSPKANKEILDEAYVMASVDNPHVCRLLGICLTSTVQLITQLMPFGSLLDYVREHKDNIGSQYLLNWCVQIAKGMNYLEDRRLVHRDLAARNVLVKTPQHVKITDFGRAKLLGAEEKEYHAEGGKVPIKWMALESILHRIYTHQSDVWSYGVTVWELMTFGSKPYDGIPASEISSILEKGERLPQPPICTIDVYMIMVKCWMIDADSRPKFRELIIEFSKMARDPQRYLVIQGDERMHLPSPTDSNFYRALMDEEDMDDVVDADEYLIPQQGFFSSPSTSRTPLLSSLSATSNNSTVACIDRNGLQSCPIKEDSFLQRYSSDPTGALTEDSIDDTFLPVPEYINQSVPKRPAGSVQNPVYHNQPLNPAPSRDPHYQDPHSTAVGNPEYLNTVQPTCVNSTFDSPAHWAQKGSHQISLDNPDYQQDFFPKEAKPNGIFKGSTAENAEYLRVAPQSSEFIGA
T2 sequence (P00533 with tags, fused parts or gaps DEL746-750/C797S): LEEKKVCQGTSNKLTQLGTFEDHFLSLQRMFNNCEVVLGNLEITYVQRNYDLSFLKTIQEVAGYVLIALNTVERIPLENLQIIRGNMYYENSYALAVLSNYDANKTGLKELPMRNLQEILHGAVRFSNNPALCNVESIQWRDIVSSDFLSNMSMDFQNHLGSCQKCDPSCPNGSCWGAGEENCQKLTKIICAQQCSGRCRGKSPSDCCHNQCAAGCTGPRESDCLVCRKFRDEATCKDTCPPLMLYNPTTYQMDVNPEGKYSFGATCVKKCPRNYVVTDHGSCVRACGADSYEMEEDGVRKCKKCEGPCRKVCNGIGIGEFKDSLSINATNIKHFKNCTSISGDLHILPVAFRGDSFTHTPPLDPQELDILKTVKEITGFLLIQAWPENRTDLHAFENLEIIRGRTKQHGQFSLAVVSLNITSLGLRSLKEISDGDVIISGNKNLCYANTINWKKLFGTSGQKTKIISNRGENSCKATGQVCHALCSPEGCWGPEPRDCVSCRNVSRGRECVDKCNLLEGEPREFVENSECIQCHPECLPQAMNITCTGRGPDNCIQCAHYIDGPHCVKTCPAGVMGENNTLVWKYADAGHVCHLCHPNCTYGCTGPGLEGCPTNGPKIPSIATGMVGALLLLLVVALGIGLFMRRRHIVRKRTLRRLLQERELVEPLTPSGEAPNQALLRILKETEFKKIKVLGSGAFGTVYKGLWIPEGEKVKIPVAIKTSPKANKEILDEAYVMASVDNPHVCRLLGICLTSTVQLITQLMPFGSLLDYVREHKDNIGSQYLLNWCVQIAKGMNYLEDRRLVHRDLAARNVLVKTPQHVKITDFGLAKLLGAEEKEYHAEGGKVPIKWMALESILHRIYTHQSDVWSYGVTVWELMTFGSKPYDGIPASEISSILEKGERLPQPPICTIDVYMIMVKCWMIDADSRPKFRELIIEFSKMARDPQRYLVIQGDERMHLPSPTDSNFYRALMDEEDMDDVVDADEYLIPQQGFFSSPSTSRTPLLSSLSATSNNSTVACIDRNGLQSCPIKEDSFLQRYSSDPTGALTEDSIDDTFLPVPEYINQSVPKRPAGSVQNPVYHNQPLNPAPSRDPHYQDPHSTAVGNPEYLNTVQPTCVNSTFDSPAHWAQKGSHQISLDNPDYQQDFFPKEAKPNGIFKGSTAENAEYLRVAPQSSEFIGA
T1 sequence (P00533 with tags, fused parts or gaps T790M/C797S/L858R): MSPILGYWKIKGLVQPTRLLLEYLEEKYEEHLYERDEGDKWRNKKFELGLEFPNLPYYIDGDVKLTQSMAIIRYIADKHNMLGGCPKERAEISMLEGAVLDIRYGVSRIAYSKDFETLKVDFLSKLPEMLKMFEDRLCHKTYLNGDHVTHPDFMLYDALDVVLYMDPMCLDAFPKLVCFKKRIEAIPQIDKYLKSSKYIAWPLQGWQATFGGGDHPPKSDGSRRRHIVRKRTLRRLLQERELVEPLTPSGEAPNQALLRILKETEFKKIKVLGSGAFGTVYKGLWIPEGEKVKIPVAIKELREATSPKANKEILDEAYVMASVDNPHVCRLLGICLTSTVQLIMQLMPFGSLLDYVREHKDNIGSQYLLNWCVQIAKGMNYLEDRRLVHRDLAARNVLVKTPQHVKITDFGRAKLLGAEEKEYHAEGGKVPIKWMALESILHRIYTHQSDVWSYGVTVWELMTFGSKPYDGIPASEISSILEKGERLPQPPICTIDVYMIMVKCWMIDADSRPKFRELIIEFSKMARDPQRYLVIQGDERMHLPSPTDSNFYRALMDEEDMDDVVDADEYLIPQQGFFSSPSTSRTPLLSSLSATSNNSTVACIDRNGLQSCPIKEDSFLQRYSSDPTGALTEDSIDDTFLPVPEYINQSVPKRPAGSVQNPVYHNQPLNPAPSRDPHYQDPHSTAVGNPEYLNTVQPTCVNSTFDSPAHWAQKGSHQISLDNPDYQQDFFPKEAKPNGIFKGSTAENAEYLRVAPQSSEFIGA

In the case of `C=CC(=O)N1CC[C@@H](n2cc(-c3cnc4ccccc4c3)c3c(N)ncnc32)C1` [Comparative Example A, (R)-1-(3(4-Amino-5-(quinolin-3-yl)-7H-pyrrolo[2,3-d]pyrimidin-7-yl)pyrrolidin-1-yl) -prop-2-en-1-one, reference compound], the pIC50 in experiment [1] (setting [5]) is 6.99; in experiment [2] (setting [6]), 6.58; in experiment [3], 6.73; in experiment [4] (setting [7]) it was 8.80.

Consider `C#Cc1c(-c2cnc3ccccc3c2)c2c(N)ncnc2n1[C@@H]1CCN(C(=O)C=C)C1` [Comparative Example B, (R)-1-(3-(4-Amino-6-ethynyl-5-(quinolin-3-yl)-7H-pyrrolo[2,3-d]pyrimidin-7-yl) -pyrrolidin-1-yl)-prop-2-en-1-one, reference compound], for which the pIC50 in experiment [1] (setting [5]) is 7.37; in experiment [2] (setting [6]), 7.03; in experiment [3] it was 7.01; in experiment [4] (setting [7]), 9.02.

For the compound `C#Cc1c(-c2cnc3ccccc3c2)c2c(N)ncnc2n1C12CCC(NC(=O)c3ccccc3)(CC1)C2` [Example 1, N-(4-(4-Amino-6-ethynyl-5-(quinolin-3-yl)-7H-pyrrolo[2,3-d]pyrimidin-7-yl)bicyclo-[2.2.1]heptan-1-yl)benzamide], the pIC50 is 9.34 in experiment [1] (setting [5]), 8.74 in experiment [2] (setting [6]), 8.55 in experiment [3] and 8.68 in experiment [4] (setting [7]).

Turning to `C#Cc1c(-c2cnc3ccccc3c2)c2c(N)ncnc2n1C12CCC(NC(=O)c3cncnc3)(CC1)C2` [Example 2, N-(4-(4-Amino-6-ethynyl-5-(quinolin-3-yl)-7H-pyrrolo[2,3-d]pyrimidin-7-yl)bicyclo-[2.2.1]heptan-1-yl)pyrimidine-5-carboxamide], the pIC50 in experiment [1] (setting [5]) is greater than 9.52; in experiment [3], 9.34; in experiment [4] (setting [7]), 9.28.

Turning to `C#Cc1c(-c2cnc3ccccc3c2)c2c(N)ncnc2n1C12CCC(NC(=O)c3ccnnc3)(CC1)C2` [Example 3, N-(4-(4-Amino-6-ethynyl-5-(quinolin-3-yl)-7H-pyrrolo[2,3-d]pyrimidin-7-yl)bicyclo-[2.2.1]heptan-1-yl)pyridazine-4-carboxamide], the pIC50 in experiment [1] (setting [5]) is greater than 9.52; in experiment [2] (setting [6]) it was greater than 9.52; in experiment [3], 9.43; in experiment [4] (setting [7]), 9.35.

With `C#Cc1c(-c2cnc3ccccc3c2)c2c(N)ncnc2n1C12CCC(N3CCOCC3)(CC1)C2` [Example 9, 6-Ethynyl-7-(4-morpholinobicyclo[2.2.1]heptan-1-yl)-5-(quinolin-3-yl)-7H-pyrrolo[2,3-d]pyrimidine-4-amine], the pIC50 in experiment [2] (setting [6]) is 9.44; in experiment [3] it was 9.00; in experiment [4] (setting [7]), 8.59.

As for `C#Cc1c(-c2cnc3ccccc3c2)c2c(N)ncnc2n1C12CCC(CNC(=O)c3ccnn3C)(CC1)C2` [Example 13, N-((4-(4-Amino-6-ethynyl-5-(quinolin-3-yl)-7H-pyrrolo[2,3-d]pyrimidin-7-yl)bicyclo-[2.2.1]heptan-1-yl)methyl)-1-methyl-1H-pyrazole-5-carboxamide], the pIC50 in experiment [2] (setting [6]) is 9.17; in experiment [3], 9.16; in experiment [4] (setting [7]) it was 9.21.

Take `C#Cc1c(-c2cnc3ccccc3c2)c2c(N)ncnc2n1C12CCC(CNC(=O)c3cnc(C)cn3)(CC1)C2` [Example 14, N-((4-(4-Amino-6-ethynyl-5-(quinolin-3-yl)-7H-pyrrolo[2,3-d]pyrimidin-7-yl)bicyclo-[2.2.1]heptan-1-yl)methyl)-5-methylpyrazine-2-carboxamide]: the pIC50 is 9.10 in experiment [2] (setting [6]), 8.89 in experiment [3] and 8.77 in experiment [4] (setting [7]).

As for `C#Cc1c(-c2cnc3ccccc3c2)c2c(N)ncnc2n1C12CCC(NC(=O)c3ccc4ncnn4c3)(CC1)C2` [Example 16, N-(4-(4-Amino-6-ethynyl-5-(quinolin-3-yl)-7H-pyrrolo[2,3-d]pyrimidin-7-yl)bicyclo-[2.2.1]heptan-1-yl)-[1.2.4]triazolo[1,5-a]pyrimidin-6-carboxamide], the negative logarithm of the IC50 (pIC50) was 9.44 in experiment [1] (setting [5]), 9.35 in experiment [2] (setting [6]), 9.31 in experiment [3] and 9.28 in experiment [4] (setting [7]).

Regarding `C#Cc1c(-c2cnc3ccccc3c2)c2c(N)ncnc2n1C12CCC(NC(=O)c3cnns3)(CC1)C2` [Example 18, N-(4-(4-Amino-6-ethynyl-5-(quinolin-3-yl)-7H-pyrrolo[2,3-d]pyrimidin-7-yl)bicyclo-[2.2.1]heptan-1-yl)-1,2,3-thiadiazole-5-carboxamide], the pIC50 in experiment [1] (setting [5]) is 9.38; in experiment [2] (setting [6]), 9.11; in experiment [3] it was 9.17; in experiment [4] (setting [7]) it was 8.85.

Regarding `C#Cc1c(-c2cnc3ccccc3c2)c2c(N)ncnc2n1C12CCC(NC(=O)c3ccnn3C3CC3)(CC1)C2` [Example 20, N-(4-(4-Amino-6-ethynyl-5-(quinolin-3-yl)-7H-pyrrolo[2,3-d]pyrimidin-7-yl)bicyclo-[2.2.1]heptan-1-yl)-1-cyclopropyl-1H-pyrazole-5-carboxamide], the pIC50 in experiment [1] (setting [5]) is 9.36; in experiment [2] (setting [6]), 9.17; in experiment [3], 8.92; in experiment [4] (setting [7]) it was 8.68.

With `C#Cc1c(-c2cnc3ccccc3c2)c2c(N)ncnc2n1C12CCC(NC(=O)c3nccn3C)(CC1)C2` [Example 23, N-(4-(4-Amino-6-ethynyl-5-(quinolin-3-yl)-7H-pyrrolo[2,3-d]pyrimidin-7-yl)bicyclo-[2.2.1]heptan-1-yl)-1-methyl-1H-imidazole-2-carboxamide], the pIC50 in experiment [1] (setting [5]) is 9.38; in experiment [2] (setting [6]), 9.15; in experiment [3], 9.08; in experiment [4] (setting [7]), 8.85.

Consider `C#Cc1c(-c2cnc3ccccc3c2)c2c(N)ncnc2n1C12CCC(NC(=O)c3ccnn3C)(CC1)C2` [Example 24, N-(4-(4-Amino-6-ethynyl-5-(quinolin-3-yl)-7H-pyrrolo[2,3-d]pyrimidin-7-yl)bicyclo-[2.2.1]heptan-1-yl)-1-methyl-1H-pyrazole-5-carboxamide], for which the pIC50 is greater than 9.52 in experiment [1] (setting [5]), 9.30 in experiment [2] (setting [6]), 9.23 in experiment [3] and 9.14 in experiment [4] (setting [7]).

Consider `C#Cc1c(-c2cnc3ccccc3c2)c2c(N)ncnc2n1C12CCC(NC(=O)C(F)F)(CC1)C2` [Example 27, N-(4-(4-Amino-6-ethynyl-5-(quinolin-3-yl)-7H-pyrrolo[2,3-d]pyrimidin-7-yl)bicyclo-[2.2.1]heptan-1-yl)-2,2-difluoroacetamide], for which the pIC50 in experiment [1] (setting [5]) was 9.33; in experiment [2] (setting [6]), 8.92; in experiment [3], 8.62; in experiment [4] (setting [7]), 8.62.

As to `C#Cc1c(-c2cnc3ccccc3c2)c2c(N)ncnc2n1C12CCC(NC(=O)c3cncc(F)c3)(CC1)C2` [Example 35, N-(4-(4-Amino-6-ethynyl-5-(quinolin-3-yl)-7H-pyrrolo[2,3-d]pyrimidin-7-yl)-bicyclo-[2.2.1]heptan-1-yl)-5-fluoronicotinamide], the pIC50 in experiment [1] (setting [5]) was 9.30; in experiment [2] (setting [6]), 9.26; in experiment [3], 9.08; in experiment [4] (setting [7]), 8.89.

Regarding `C#Cc1c(-c2cnc3ccccc3c2)c2c(N)ncnc2n1C12CCC(NC(=O)c3noc(C)n3)(CC1)C2` [Example 36, N-(4-(4-Amino-6-ethynyl-5-(quinolin-3-yl)-7H-pyrrolo[2,3-d]pyrimidin-7-yl)-bicyclo-[2.2.1]heptan-1-yl)-5-methyl-1,2,4-oxadiazole-3-carboxamide], the pIC50 is 9.25 in experiment [1] (setting [5]), 9.21 in experiment [2] (setting [6]), 9.00 in experiment [3] and 8.59 in experiment [4] (setting [7]).

As to `C#Cc1c(-c2cnc3ccccc3c2)c2c(N)ncnc2n1C12CCC(NC(=O)c3cnc(C)cn3)(CC1)C2` [Example 37, N-(4-(4-Amino-6-ethynyl-5-(quinolin-3-yl)-7H-pyrrolo[2,3-d]pyrimidin-7-yl)-bicyclo-[2.2.1]heptan-1-yl)-5-methylpyrazine-2-carboxamide], the pIC50 in experiment [1] (setting [5]) is 9.28; in experiment [2] (setting [6]) it was 9.30; in experiment [3] it was 9.16; in experiment [4] (setting [7]), 9.04.

Regarding `C#Cc1c(-c2cnc3ccccc3c2)c2c(N)ncnc2n1C12CCC(NC(=O)c3ccncc3)(CC1)C2` [Example 43], the pIC50 is 9.14 in experiment [2] (setting [6]), 9.31 in experiment [3] and 8.77 in experiment [4] (setting [7]).

For `C#Cc1c(-c2cnc3ccccc3c2)c2c(N)ncnc2n1C12CCC(NC(=O)c3cccnc3)(CC1)C2` [Example 45], the pIC50 is 9.17 in experiment [2] (setting [6]), 9.28 in experiment [3] and 8.72 in experiment [4] (setting [7]).

Consider `C#Cc1c(-c2cnc3ccccc3c2)c2c(N)ncnc2n1C12CCC(NC(=O)[C@@H]3CN(C)CCO3)(CC1)C2` [Example 63, (S)-N-(4-(4-Amino-6-ethynyl-5-(quinolin-3-yl)-7H-pyrrolo[2,3-d]pyrimidin-7-yl) -bicyclo[2.2.1]heptan-1-yl)-4-methylmorpholine-2-carboxamide], for which the pIC50 in experiment [1] (Test Example 3, Table 9; same procedures as 2) in Test Example 1) is greater than 9.52; in experiment [2] (Test Example 3, Table 10; same procedures as 3) in Test Example 1), 9.29; in experiment [4] (Test Example 3, Table 12; same procedures as 5) in Test Example 1) it was 8.55.
